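These data come from cells grown in 96-well plates and exposed to compound for 48 hours at five concentrations. TGI is the concentration that stops growth completely.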 Where a SMILES comes first, the peptide text is derived from it. [ ]: non-standard residue; d: D form. pGlu = O=C1CC[CH](C(=O)O)N1
What was measured:
Experiment in all cases: DTP human tumour cell line panel, 48 h
OVCAR-3 ovarian = system: OVCAR-3 ovarian
DU-145 prostate = system: DU-145 prostate
MCF7 breast = system: MCF7 breast
MDA-MB-435 = system: MDA-MB-435
SK-MEL-5 melanoma = system: SK-MEL-5 melanoma
786-0 renal = system: 786-0 renal
MDA-MB-231 breast = system: MDA-MB-231 breast
MALME-3M melanoma = system: MALME-3M melanoma
SK-OV-3 ovarian = system: SK-OV-3 ovarian
SF-295 CNS = system: SF-295 CNS
SNB-19 CNS = system: SNB-19 CNS

CCn1c(SCC(=O)N/N=C2\SCC(=O)N2c2ccc(C)cc2)nc2ccccc2c1=O
TGI (OVCAR-3 ovarian): 62.9 µM | TGI (DU-145 prostate): 75 µM | TGI (MCF7 breast): 45.9 µM | TGI (MDA-MB-435): 43.8 µM | TGI (SK-MEL-5 melanoma): 50 µM | TGI (786-0 renal): 35 µM | TGI (MDA-MB-231 breast): 36.3 µM | TGI (MALME-3M melanoma): 45.6 µM | TGI (SK-OV-3 ovarian): 36 µM | TGI (SF-295 CNS): 36.2 µM | TGI (SNB-19 CNS): 43.6 µM

O=C(OC1=CCN(Br)C1=O)C1=C(O)C(=O)N(Br)C1
TGI (OVCAR-3 ovarian): 51.6 µM | TGI (DU-145 prostate): > 100 µM | TGI (MCF7 breast): > 100 µM | TGI (MDA-MB-435): > 100 µM | TGI (SK-MEL-5 melanoma): 33.5 µM | TGI (786-0 renal): 30.4 µM | TGI (MDA-MB-231 breast): 86.3 µM | TGI (MALME-3M melanoma): > 100 µM | TGI (SK-OV-3 ovarian): 71.2 µM | TGI (SF-295 CNS): 69.7 µM | TGI (SNB-19 CNS): 43.6 µM

O=C(Nc1ccccc1)N(CCN(Cc1ccccc1)C(=O)Nc1ccccc1)CCN(Nc1ccccc1)C(=O)Nc1ccccc1
TGI (OVCAR-3 ovarian): > 100 µM | TGI (DU-145 prostate): > 100 µM | TGI (MCF7 breast): > 100 µM | TGI (MDA-MB-435): > 100 µM | TGI (SK-MEL-5 melanoma): > 100 µM | TGI (786-0 renal): > 100 µM | TGI (MDA-MB-231 breast): > 100 µM | TGI (MALME-3M melanoma): > 100 µM | TGI (SK-OV-3 ovarian): > 100 µM | TGI (SF-295 CNS): > 100 µM | TGI (SNB-19 CNS): > 100 µM

CC(NC(=O)C1CCC(=O)N1)C(=O)N1CCCC1C(N)=O (stereo not drawn) ([pGlu]-Ala-Pro-NH2; configuration not given here)
TGI (OVCAR-3 ovarian): > 100 µM | TGI (DU-145 prostate): > 100 µM | TGI (MCF7 breast): > 100 µM | TGI (MDA-MB-435): > 100 µM | TGI (SK-MEL-5 melanoma): > 100 µM | TGI (786-0 renal): > 100 µM | TGI (MDA-MB-231 breast): > 100 µM | TGI (MALME-3M melanoma): > 100 µM | TGI (SK-OV-3 ovarian): > 100 µM | TGI (SF-295 CNS): > 100 µM | TGI (SNB-19 CNS): > 100 µM

COc1cc(C2C=C(c3ccccc3)Oc3cc4c(cc32)OCO4)cc(OC)c1OC (stereo unspecified)
TGI (OVCAR-3 ovarian): > 100 µM | TGI (DU-145 prostate): 4.58 µM | TGI (MCF7 breast): > 100 µM | TGI (MDA-MB-435): > 100 µM | TGI (SK-MEL-5 melanoma): > 47.8 µM | TGI (786-0 renal): > 19.6 µM | TGI (MDA-MB-231 breast): > 32.2 µM | TGI (MALME-3M melanoma): > 100 µM | TGI (SK-OV-3 ovarian): > 100 µM | TGI (SF-295 CNS): > 16.9 µM | TGI (SNB-19 CNS): > 100 µM

C[C@H](Nc1nc(N)c(N=O)c(=O)n1C)C(=O)O
TGI (OVCAR-3 ovarian): > 10 µM | TGI (DU-145 prostate): > 10 µM | TGI (MCF7 breast): > 10 µM | TGI (MDA-MB-435): > 10 µM | TGI (SK-MEL-5 melanoma): > 10 µM | TGI (786-0 renal): > 10 µM | TGI (MDA-MB-231 breast): > 10 µM | TGI (MALME-3M melanoma): > 10 µM | TGI (SK-OV-3 ovarian): > 10 µM | TGI (SF-295 CNS): > 10 µM | TGI (SNB-19 CNS): > 10 µM

CC(C)C1CSC2N1C(=O)C2(OCc1ccccc1)C1CC1 (stereo unspecified)
TGI (OVCAR-3 ovarian): > 100 µM | TGI (DU-145 prostate): > 100 µM | TGI (MCF7 breast): > 100 µM | TGI (MDA-MB-435): > 100 µM | TGI (SK-MEL-5 melanoma): > 100 µM | TGI (786-0 renal): > 100 µM | TGI (MDA-MB-231 breast): > 100 µM | TGI (MALME-3M melanoma): > 100 µM | TGI (SK-OV-3 ovarian): > 100 µM | TGI (SF-295 CNS): > 100 µM | TGI (SNB-19 CNS): > 100 µM

CCOC(=O)c1c(N)sc2c1CC(C)CC2 (stereo unspecified)
TGI (OVCAR-3 ovarian): > 100 µM | TGI (DU-145 prostate): > 100 µM | TGI (MCF7 breast): > 100 µM | TGI (MDA-MB-435): > 100 µM | TGI (SK-MEL-5 melanoma): 37.7 µM | TGI (786-0 renal): 55.3 µM | TGI (MDA-MB-231 breast): > 100 µM | TGI (MALME-3M melanoma): > 100 µM | TGI (SK-OV-3 ovarian): > 100 µM | TGI (SF-295 CNS): > 100 µM | TGI (SNB-19 CNS): > 100 µM

O=c1onc2n1-c1ccc(Cl)cc1C(=S)N1CSCC21 (stereo unspecified)
TGI (OVCAR-3 ovarian): > 100 µM | TGI (DU-145 prostate): > 100 µM | TGI (MCF7 breast): 96.9 µM | TGI (MDA-MB-435): 23.8 µM | TGI (SK-MEL-5 melanoma): > 100 µM | TGI (786-0 renal): > 100 µM | TGI (MDA-MB-231 breast): 41.8 µM | TGI (MALME-3M melanoma): > 100 µM | TGI (SK-OV-3 ovarian): 49.4 µM | TGI (SF-295 CNS): 41.9 µM | TGI (SNB-19 CNS): 52.5 µM

O=c1[nH]c(NCc2cccnc2)nc2nc[nH]c12
TGI (OVCAR-3 ovarian): > 100 µM | TGI (DU-145 prostate): > 100 µM | TGI (MCF7 breast): > 100 µM | TGI (MDA-MB-435): > 100 µM | TGI (SK-MEL-5 melanoma): > 100 µM | TGI (786-0 renal): > 100 µM | TGI (MDA-MB-231 breast): > 100 µM | TGI (MALME-3M melanoma): > 100 µM | TGI (SK-OV-3 ovarian): > 100 µM | TGI (SF-295 CNS): > 100 µM | TGI (SNB-19 CNS): > 100 µM

COc1ccc(/C=C2\N=C(N3CCCC(CO)C3)NC2=O)cc1 (stereo unspecified)
TGI (OVCAR-3 ovarian): > 100 µM | TGI (DU-145 prostate): > 100 µM | TGI (MCF7 breast): > 100 µM | TGI (MDA-MB-435): > 100 µM | TGI (SK-MEL-5 melanoma): > 100 µM | TGI (786-0 renal): > 100 µM | TGI (MDA-MB-231 breast): > 100 µM | TGI (MALME-3M melanoma): > 100 µM | TGI (SK-OV-3 ovarian): > 100 µM | TGI (SF-295 CNS): > 100 µM | TGI (SNB-19 CNS): > 100 µM

CCOP(=O)(OCC)Oc1c(OC)c2[nH]c(C(=O)OC)cc2c2c(C(=O)O)c[nH]c12
TGI (OVCAR-3 ovarian): > 100 µM | TGI (DU-145 prostate): > 100 µM | TGI (MCF7 breast): > 100 µM | TGI (MDA-MB-435): > 100 µM | TGI (SK-MEL-5 melanoma): > 100 µM | TGI (786-0 renal): > 100 µM | TGI (MDA-MB-231 breast): > 100 µM | TGI (MALME-3M melanoma): > 100 µM | TGI (SK-OV-3 ovarian): > 100 µM | TGI (SF-295 CNS): > 100 µM | TGI (SNB-19 CNS): > 100 µM

CC(C)(C)c1cc(/C=C(\C#N)C2=NCCO2)cc(C(C)(C)C)c1O
TGI (OVCAR-3 ovarian): 7.51 µM | TGI (DU-145 prostate): > 40.9 µM | TGI (MCF7 breast): 12.7 µM | TGI (MDA-MB-435): 32.3 µM | TGI (SK-MEL-5 melanoma): 5.62 µM | TGI (786-0 renal): 14.7 µM | TGI (MDA-MB-231 breast): 12.4 µM | TGI (MALME-3M melanoma): 19.6 µM | TGI (SK-OV-3 ovarian): > 32.9 µM | TGI (SF-295 CNS): 9.8 µM | TGI (SNB-19 CNS): 15.5 µM

COC(=O)C(CNC(=O)/C=C/c1ccc(OC)c(OC)c1)NC(=O)/C=C/c1ccc(OC)c(OC)c1 (stereo unspecified)
TGI (OVCAR-3 ovarian): > 100 µM | TGI (DU-145 prostate): > 100 µM | TGI (MCF7 breast): > 100 µM | TGI (MDA-MB-435): > 100 µM | TGI (SK-MEL-5 melanoma): > 100 µM | TGI (786-0 renal): > 100 µM | TGI (MDA-MB-231 breast): > 100 µM | TGI (MALME-3M melanoma): > 100 µM | TGI (SK-OV-3 ovarian): > 100 µM | TGI (SF-295 CNS): > 100 µM | TGI (SNB-19 CNS): > 100 µM

Cc1c(NC(=S)Nc2ccc([N+](=O)[O-])cc2)c(=O)n(-c2ccccc2)n1C
TGI (OVCAR-3 ovarian): > 100 µM | TGI (DU-145 prostate): > 100 µM | TGI (MCF7 breast): > 100 µM | TGI (MDA-MB-435): > 100 µM | TGI (SK-MEL-5 melanoma): > 100 µM | TGI (786-0 renal): > 100 µM | TGI (MDA-MB-231 breast): > 100 µM | TGI (MALME-3M melanoma): > 100 µM | TGI (SK-OV-3 ovarian): > 100 µM | TGI (SF-295 CNS): > 100 µM | TGI (SNB-19 CNS): > 100 µM

COC(=O)C1=C(C)NC(=O)N2[C@@H](CCOCc3ccccc3)CC[C@@H]12
TGI (OVCAR-3 ovarian): > 50 µM | TGI (DU-145 prostate): > 50 µM | TGI (MCF7 breast): > 50 µM | TGI (MDA-MB-435): > 50 µM | TGI (SK-MEL-5 melanoma): > 50 µM | TGI (786-0 renal): > 50 µM | TGI (MDA-MB-231 breast): > 50 µM | TGI (MALME-3M melanoma): > 50 µM | TGI (SK-OV-3 ovarian): > 50 µM | TGI (SF-295 CNS): > 50 µM | TGI (SNB-19 CNS): > 50 µM
